Data taken from US10028961B2, “Therapeutically active compounds and their methods of use” (AGIOS PHARMACEUTICALS, INC., priority 2013, dated 2018).
Where two headings read alike, the source gives them in different places.

How the values were obtained:
[1] = test system: Neurosphere cells (TS603); experiment: Cellular assay for IDH1m R132H inhibitors, 2-HG by LC-MS in neurosphere cells (TS603); format: cell-based; details: 2-HG in media at 48 hours
Experimental: Cellular Assay for IDH1m R132H Inhibitors.
The following describes the experimental procedures that can be used to obtain data in column 4 of Table 5.
Neurosphere cells (TS603) are grown at 37 C in 5% CO2 in Stem Cell Technologies NeuroCult™ NS-A media supplemented with 1% Primocin, 1% Normocin, 0.0002% Heparin, 20 ng/mL EGF and 10 ng/mL bFGF. Cells are harvested, pelleted and resuspended in Accumax for cell dissociation and counting. Cells are counted and then resuspended in NeuroCult media with 2× heparin, EGF and bFGF at 4 million cells/10 mL media. 100 μl of cell solution are plated in each well of a 96 well with the exception of columns 1 and 12. Columns 1 and 12 contain 200 μL PBS. Compound dose responses are set up at a 2× concentration in Neurocult media without heparin, EGF and bFGF. The final concentration of DMSO is 0.25%. DMSO only control wells are plated in row H. The plates are then placed in the incubator for 48 hours. At 48 hours, 100 μl of media is removed from each well and analyzed by LC-MS for 2-HG concentrations. The cell plate is placed back in the incubator for another 24 hours. At 72 hours post compound addition, 10 mL/plate of Promega Cell Titer Glo reagent is thawed and mixed. The cell plate is removed from the incubator and allowed to equilibrate to room temperature. Then 100 μl of Promega Cell Titer Glo reagent is added to each well of media. The cell plate is then placed on an orbital shaker for 10 minutes and then allowed to sit at room temperature for 20 minutes. The plate is then read for luminescence with an integration time of 500 ms.

[2] = target: IDH1 wt/IDH1 R132H heterodimer (Homo sapiens (Human), UniProt O75874, R132H); experiment: In vitro assay for IDH1m R132H inhibitors, IDH1 wt/IDH1 R132H heterodimer, NADPH depletion (diaphorase/resazurin); format: biochemical
IDH1 wt/IDH1 R132H heterodimer, sequence (O75874 whole entry R132H): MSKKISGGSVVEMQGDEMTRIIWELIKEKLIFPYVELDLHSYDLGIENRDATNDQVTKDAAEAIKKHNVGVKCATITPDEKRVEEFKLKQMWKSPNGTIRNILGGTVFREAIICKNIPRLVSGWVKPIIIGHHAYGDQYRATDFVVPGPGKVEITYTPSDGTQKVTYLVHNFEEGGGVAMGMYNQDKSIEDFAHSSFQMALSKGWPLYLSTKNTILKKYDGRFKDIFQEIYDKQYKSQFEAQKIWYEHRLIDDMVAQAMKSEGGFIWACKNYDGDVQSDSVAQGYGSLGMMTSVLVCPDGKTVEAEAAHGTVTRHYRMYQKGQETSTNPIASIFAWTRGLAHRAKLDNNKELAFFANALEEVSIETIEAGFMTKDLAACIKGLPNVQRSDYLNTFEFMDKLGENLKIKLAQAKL
IDH1 wt/IDH1 R132H heterodimer, sequence (O75874 whole entry, stated change not applied): as the sequence (O75874 whole entry R132H) above, with H132R counted along it
Experimental: The following describes the experimental procedures that can be used to obtain data on columns 2 and 4 of Table 4 and column 2 of Table 5.
In the primary reaction, the reduction of α-KG acid to 2-HG is accompanied by a concomitant oxidation of NADPH to NADP. The amount of NADPH remaining at the end of the reaction time is measured in a secondary diaphorase/resazurin reaction in which the NADPH is consumed in a 1:1 molar ratio with the conversion of resazurin to the highly fluorescent resorufin.
The mixture of compound, enzyme, and cofactor is pre-incubated at room temperature for 1 hr prior to the addition of alpha-ketoglutarate. To perform the secondary reaction, 10 uL of 1× buffer containing 36 μg/ml diaphorase and […] resazurin is added to the primary reaction and incubated for a further 5 minutes at 25° C. […] Compounds or compound dilutions are prepared in 100% DMSO concentration and diluted 1:50 into the final reaction. […] IC50s are determined.
IDH1 or IDH2 wildtype (wt) and mutant heterodimers are expressed and purified by methods known in the art. […] Co-expression of IDH1wt-his and IDH1R132C-flag is carried out in sf9 insect cells. Cells (25 g) are resuspended in 250 ml of 50 mM Tirs, 500 mM NaCl, pH7.4, at 4° C. with stirring. Cells are disrupted with 4 passes through an M-Y110 Micro fluidizer (Microfluidics) set to 500 psi, and then centrifuged at 22,000 rcf for 20 min at 4° C. The supernatant is harvested and loaded at 15 cm/h on a Histrap FF 5*1 ml column (GE) which is equilibrated with 50 mM Tirs, 500 mM NaCl, pH7.4. Host cell contaminants are removed by washing the column with equilibration buffer followed by equilibration buffer containing 20 mM imidazole and 60 mM imidazole to baseline. IDH1wt-his homodimer and IDH1wt-his/IDH1R132C-flag are eluted by equilibration buffer containing 250 mM imidazole. Fractions eluted by 250 mM imidazole are pooled together and loaded at 15 cm/h onto a column pre-packed with 10 ml ANTI-FLAG® M2 Affinity Gel (Sigma), the column is equilibrated with 50 mM Tris, 500 mM NaCl, pH7.4. After washing with equilibration buffer, IDH1wt-his/IDH1R132C-flag heterodimer is eluted by equilibration buffer containing flag peptide (0.2 mg/ml). Aliquots of IDH1wt-his/IDH1R132C-flag are flash frozen in liquid N2 and stored at −80° C. Same conditions are used for the purification of IDH1wt-his/IDH1R132H-flag.

IDH2 R140Q = IDH2 R140Q (Homo sapiens (Human), UniProt P48735, R140Q); experiment: In vitro assay for IDH2m R140Q inhibitors, cofactor depletion assay; format: biochemical; details: IDH2 R140Q enzyme
IDH2 R140Q, sequence (P48735 40-452 R140Q): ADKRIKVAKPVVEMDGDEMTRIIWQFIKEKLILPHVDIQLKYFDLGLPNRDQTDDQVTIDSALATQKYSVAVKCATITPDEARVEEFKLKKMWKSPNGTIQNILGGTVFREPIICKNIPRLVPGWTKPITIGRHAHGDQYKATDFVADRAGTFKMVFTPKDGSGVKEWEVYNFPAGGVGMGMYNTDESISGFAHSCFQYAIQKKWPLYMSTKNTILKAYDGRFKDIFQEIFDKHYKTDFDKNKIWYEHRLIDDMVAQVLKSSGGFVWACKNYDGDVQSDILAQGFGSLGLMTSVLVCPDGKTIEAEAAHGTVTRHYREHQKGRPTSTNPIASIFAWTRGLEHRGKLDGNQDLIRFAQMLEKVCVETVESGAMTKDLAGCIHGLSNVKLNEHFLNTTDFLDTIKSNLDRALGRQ
Source text: The following describes the experimental procedures used to obtain data on column 7 of Table 4.
The reaction is terminated by the addition of a second enzyme, diaphorase, and a corresponding substrate, resazurin. Diaphorase reduces resazurin to the highly fluorescent resorufin with the concomitant oxidation of NADPH to NADP, both halting the IDH2 reaction by depleting the available cofactor pool and facilitating quantitation of the amount of cofactor remaining after a specific time period through quantitative production of an easily detected fluorophore.
The test compound is then incubated for one hour at room temperature with the enzyme; before starting the IDH2 reaction with the addition of 10 μl of substrate mix containing 4 μM NADPH and 1.6 mM α-KG in the buffer described above. After a further 16 hours of incubation at room temperature, the reaction is halted and the remaining NADPH measured through conversion of resazurin to resorufin by the addition of 25 μl Stop Mix (36 μg/ml diaphorase enzyme and 60 μM resazurin; in buffer).

[3] = test system: U87MG pLVX-IDH2 R140Q-neo cells; experiment: U87MG pLVX-IDH2 R140Q-neo cell based assay, 2-HG by LC-MS; details: Homo sapiens, U-87 MG
[4] = IDH1 wt/R132H heterodimer, NADPH/NADP, not saturated, read-out: IDH1 wt/R132H NADPH/NADP IC50 not saturated
[5] = IDH1 wt/IDH1 R132H heterodimer, 300 μM NADP (saturated), read-out: IDH1 wt/R132H NADPH/NADP IC50 saturated

SMILES | IC50 [1] | IC50 [2, 4] | IC50 (IDH2 R140Q) | IC50 [3] | IC50 [2, 5]
FC1(F)CCC(Nc2nc(NC3CCC(F)(F)C3)nc(-c3nc(C(F)(F)F)cs3)n2)C1 (stereo not shown) [Compound 148] | < 50 nM | < 50 nM | < 50 nM | < 50 nM | –
C[C@@H](Nc1nc(N[C@H](C)C2CC2)nc(-c2cccc(C(F)F)n2)n1)C1CC1 [Compound 198] | < 50 nM | < 50 nM | < 50 nM | < 50 nM | –
N#Cc1cc(Nc2nc(NC3CCC(F)(F)CC3)nc(-c3cccc(C(F)(F)F)n3)n2)ccn1 [Compound 204] | < 50 nM | < 50 nM | < 50 nM | < 50 nM | –
FC1(F)CCC(Nc2nc(NC3CC4(C3)CC(F)(F)C4)nc(-c3cccc(C(F)(F)F)n3)n2)CC1 [Compound 228] | < 50 nM | < 50 nM | < 50 nM | < 50 nM | –
Fc1ccc([C@H]2C[C@H](Nc3nc(NC4CCC(F)(F)C4)nc(-c4cccc(C(F)(F)F)n4)n3)C2)cc1 (stereo partly shown) [Compound 230] | < 50 nM | < 50 nM | < 50 nM | < 50 nM | –
N#CC1(c2cc(Nc3nc(N[C@H]4CCC(F)(F)C4)nc(-c4ccnc(C(F)(F)F)n4)n3)ccn2)CC1 [Compound 341] | < 50 nM | – | < 50 nM | < 50 nM | 100 to 1000 nM
C[C@@H](Nc1nc(N[C@H](C)C(F)(F)F)nc(-c2ccnc(C(F)(F)F)n2)n1)C(F)(F)F [Compound 344] | < 50 nM | – | 50 to 100 nM | 50 to 100 nM | 50 to 100 nM
CC[C@H](Nc1nc(N[C@@H](CC)C(F)(F)F)nc(-c2ccnc(C(F)(F)F)n2)n1)C(F)(F)F [Compound 345] | < 50 nM | – | 100 to 1000 nM | 100 to 1000 nM | < 50 nM
C[C@H](Nc1nc(Nc2ccnc(C3(C#N)CC3)c2)nc(-c2cccc(C(C)(F)F)n2)n1)C(F)(F)F [Compound 347] | < 50 nM | – | < 50 nM | < 50 nM | < 50 nM
C[C@@H](Nc1nc(Nc2ccnc(C3(C#N)CC3)c2)nc(-c2cccc(C(C)(F)F)n2)n1)C(F)(F)F [Compound 348] | < 50 nM | – | < 50 nM | < 50 nM | < 50 nM
C[C@H](Nc1nc(Nc2ccnc(C3(C#N)CC3)c2)nc(-c2cccc(C(F)(F)F)n2)n1)C(F)(F)F [Compound 351] | < 50 nM | – | < 50 nM | < 50 nM | < 50 nM
C[C@@H](Nc1nc(Nc2ccnc(C3(C#N)CC3)c2)nc(-c2cccc(C(F)(F)F)n2)n1)C(F)(F)F [Compound 352] | < 50 nM | – | < 50 nM | < 50 nM | < 50 nM
FC1(F)CCC(Nc2nc(Nc3ccnc(C(F)(F)F)c3)nc(-c3nc(C(F)(F)F)cs3)n2)C1 (stereo not shown) [Compound 353] | < 50 nM | – | < 50 nM | < 50 nM | < 50 nM
FC(F)(F)c1cccc(-c2nc(NCC3CC3(F)F)nc(NCC3CC3(F)F)n2)n1 (stereo not shown) [Compound 354] | < 50 nM | – | < 50 nM | < 50 nM | 50 to 100 nM
CC(F)(F)c1cc(Nc2nc(N[C@@H]3CCC(F)(F)C3)nc(-c3cccc(C(F)(F)F)n3)n2)ccn1 [Compound 355] | < 50 nM | – | < 50 nM | < 50 nM | < 50 nM
C[C@H](Nc1nc(Nc2ccnc(C(F)(F)F)c2)nc(-n2ccc(C(F)(F)F)n2)n1)C(F)(F)F [Compound 356] | < 50 nM | – | < 50 nM | < 50 nM | < 50 nM
CC(F)(F)c1csc(-c2nc(NC3CCC(F)(F)CC3)nc(NC3CCC(F)(F)CC3)n2)n1 [Compound 357] | < 50 nM | – | < 50 nM | < 50 nM | 50 to 100 nM
CC(F)(F)c1cc(Nc2nc(NC3CC(F)(F)C3)nc(-c3cccc(C(F)(F)F)n3)n2)ccn1 [Compound 358] | < 50 nM | – | < 50 nM | < 50 nM | < 50 nM
CC(F)(F)c1cc(Nc2nc(N[C@H]3CCC(F)(F)C3)nc(-c3cccc(C(F)(F)F)n3)n2)ccn1 [Compound 360] | < 50 nM | – | < 50 nM | < 50 nM | < 50 nM

More lines, now with the values ahead:

IC50 [1] | IC50 [2, 4] | IC50 (IDH2 R140Q) | IC50 [3] | IC50 [2, 5] | SMILES
< 50 nM | < 50 nM | < 50 nM | < 50 nM | – | Fc1cc(F)cc(Nc2nc(NC3CCC(F)(F)C3)nc(-c3nc(F)ccc3F)n2)c1 (stereo not shown) [Compound 139]
< 50 nM | < 50 nM | < 50 nM | < 50 nM | – | Fc1ccc2c(c1)CC(Nc1nc(NC3CCC(F)(F)C3)nc(-c3cccc(C(F)(F)F)n3)n1)C2 (stereo not shown) [Compound 150]
< 50 nM | < 50 nM | < 50 nM | < 50 nM | – | FC1(F)CCC(Nc2nc(NC3CCC(c4ccccc4)C3)nc(-c3cccc(C(F)(F)F)n3)n2)C1 (stereo not shown) [Compound 184]
< 50 nM | – | < 50 nM | < 50 nM | < 50 nM | CC[C@H](Nc1nc(N[C@@H](CC)C(F)(F)F)nc(-c2cncc(C(F)(F)F)n2)n1)C(F)(F)F [Compound 339]
50 to 100 nM | – | < 50 nM | < 50 nM | 100 to 1000 nM | FC1(F)CC[C@@H](Nc2nc(Nc3ccnc(C(F)(F)F)c3)nc(-c3ccnc(C(F)(F)F)n3)n2)C1 [Compound 340]
< 50 nM | – | < 50 nM | < 50 nM | 100 to 1000 nM | N#CC1(c2cc(Nc3nc(N[C@@H]4CCC(F)(F)C4)nc(-c4ccnc(C(F)(F)F)n4)n3)ccn2)CC1 [Compound 342]
< 50 nM | – | < 50 nM | < 50 nM | < 50 nM | CC[C@H](Nc1nc(N[C@@H](CC)C(F)(F)F)nc(-c2cccc(C(F)(F)F)n2)n1)C(F)(F)F [Compound 346]
< 50 nM | – | < 50 nM | < 50 nM | < 50 nM | C[C@H](Nc1nc(Nc2ccnc(C3(C#N)CC3)c2)nc(-n2ccc(C(F)(F)F)n2)n1)C(F)(F)F [Compound 349]
< 50 nM | – | < 50 nM | < 50 nM | < 50 nM | C[C@@H](Nc1nc(Nc2ccnc(-c3ccccc3)c2)nc(-c2cccc(C(F)(F)F)n2)n1)C(F)(F)F [Compound 359]
